Each structure is given as a SMILES string.

For the assay, the system named is Eschericia coli strain ATCC25922. The assay is described as follows: standard microdilution assay to determine minimum inhibitory concentrations (MICs). The class given is cell-based. As to conditions: Escherichia coli, read-out: E. coli ATCC25922 MIC. How it is done:
Minimum inhibitory concentrations (MICs) are determined by the microdilution method, typically in a final volume of 100 microliters, according to protocols outlined by The Clinical and Laboratory Standards Institute [CLSI; formerly the National Committee for Clinical Laboratory Standards (NCCLS)]. See CLSI: Methods for dilution antimicrobial susceptibility tests for bacteria that grow aerobically; approved standard-fifth edition. Wayne, Pa.: NCCLS; 2000. The assays can be also be performed in microtiter trays according to conventional methodologies as published by the CLSI. See CLSI. Methods for Dilution Antimicrobial Susceptibility Tests for Bacteria That Grow Aerobically; Approved Standard-Seventh Edition. CLSI Document M7-A7 [ISBN 1-56238-587-9] CLSI, 940 West Valley Road, Suite 1400, Wayne Pa. 19087-1898 USA, 2006).
The compounds of the present invention were tested for antimicrobial activity. The compounds were run against Eschericia coli strain ATCC25922 using a standard microdilution assay to determine minimum inhibitory concentrations (MICs). […] A “N/A” means that data is unavailable. It will be recognized by one skilled in the art that the compounds can be assessed against other bacterial organisms and that the presentation of data for activity against Eschericia coli is illustrative and in no way is intended to limit the scope of the present invention. The compounds of the present invention can be assayed against a range of other microorganisms depending upon the performance activity desired to be gathered. Furthermore, the “+”, “−”, and “N/A” representation and the selection of a cutoff value of 16 micrograms/ml is also illustrative and in no way is intended to limit the scope of the present invention.
As usually defined, the MIC is the least concentration at which growth counts as inhibited. As for `COCCN(C(=O)CN1CCC(c2ccc3c(c2)Nc2nc(=O)n(C4CCC(N)CC4)cc2O3)CC1)C1CCNCC1` (stereo not drawn) [Compound 1041], the minimal inhibitory concentration (MIC) was over 16 µg/mL.
Then `NC1CCC(n2cc3c(nc2=O)Nc2cc(C4CCN(CC(=O)N(CC5CC5(F)F)C5CCNCC5)CC4)ccc2O3)CC1` (stereo not drawn) [Compound 1042], with over 16 µg/mL; and `NCCC(=O)NC1CCC(n2cc3c(nc2=O)Nc2cc(C4CCNCC4)ccc2O3)CC1` (stereo not drawn) [Compound 1086], with under 16 µg/mL.
Take `NC1CCC(n2cc3c(nc2=O)Nc2cc(C4CCN(CC(=O)N(Cc5ccc6[nH]cnc6c5)C5CCNCC5)CC4)ccc2O3)CC1` (stereo not drawn) [Compound 1096]: the minimal inhibitory concentration (MIC) was over 16 µg/mL.
As to `N=C(N)NCCS(=O)(=O)NC1CCC(n2cc3c(nc2=O)Nc2cc(C4CCNCC4)ccc2O3)CC1` (stereo not drawn) [Compound 1133], the MIC is under 16 µg/mL.
Consider `N=C(N)NCCCN(C(=O)CCN)C1CCC(n2cc3c(nc2=O)Nc2cc(C4CCNCC4)ccc2O3)CC1` (stereo not drawn) [Compound 1134], for which the minimal inhibitory concentration (MIC) is under 16 µg/mL.
Consider `N=C(N)NCCCN(C(=O)CCNC(=N)N)C1CCC(n2cc3c(nc2=O)Nc2cc(C4CCNCC4)ccc2O3)CC1` (stereo not drawn) [Compound 1135], for which the MIC was under 16 µg/mL.
Then `N=C(N)NCCC(=O)N(CCCN)C1CCC(n2cc3c(nc2=O)Nc2cc(C4CCNCC4)ccc2O3)CC1` (stereo not drawn) [Compound 1145], with under 16 µg/mL.
Take `NCCCN(C(=O)CCN)C1CCC(n2cc3c(nc2=O)Nc2cc(C4CCNCC4)ccc2O3)CC1` (stereo not drawn) [Compound 1146]: the minimal inhibitory concentration (MIC) was under 16 µg/mL.
Regarding `NCCS(=O)(=O)NC1CCC(n2cc3c(nc2=O)Nc2cc(C4CCNCC4)ccc2O3)CC1` (stereo not drawn) [Compound 1147], the minimum inhibitory concentration (MIC) is over 16 µg/mL.
For `O=C(CCN1CCNCC1)NC1CCC(n2cc3c(nc2=O)Nc2cc(C4CCNCC4)ccc2O3)CC1` (stereo not drawn) [Compound 1192], the MIC is over 16 µg/mL.
As for `O=c1nc2c(cn1C1CCC(NCCCN3CCNCC3)CC1)Oc1ccc(C3CCNCC3)cc1N2` (stereo not drawn) [Compound 1193], the MIC is over 16 µg/mL.
`Cc1ccc(CCCNC2CCC(n3cc4c(nc3=O)Nc3cc(C5CCNCC5)ccc3O4)CC2)o1` (stereo not drawn) [Compound 1197]: the minimal inhibitory concentration (MIC) is over 16 µg/mL.
`Cc1ccc(CCCN(CCCc2ccc(C)o2)C2CCC(n3cc4c(nc3=O)Nc3cc(C5CCNCC5)ccc3O4)CC2)o1` (stereo not drawn) [Compound 1198]: the MIC is over 16 µg/mL.
Under `O=c1nc2c(cn1C1CCC(NCCCc3cnn[nH]3)CC1)Oc1ccc(C3CCNCC3)cc1N2` (stereo not drawn) [Compound 1212] stands over 16 µg/mL.
In the case of `O=C1OCCN1CCCNC1CCC(n2cc3c(nc2=O)Nc2cc(C4CCNCC4)ccc2O3)CC1` (stereo not drawn) [Compound 1213], the minimal inhibitory concentration (MIC) is over 16 µg/mL.
Turning to `O=c1nc2c(cn1C1CCC(NCCCN3CCCCC3)CC1)Oc1ccc(C3CCNCC3)cc1N2` (stereo not drawn) [Compound 1234], the MIC was under 16 µg/mL.
As for `NCCCNC(=O)C1CCC(n2cc3c(nc2=O)Nc2cc(C4CCNCC4)ccc2O3)CC1` (stereo not drawn) [Compound 1235], the MIC is under 16 µg/mL.
Consider `N=C(N)NCCCNC(=O)C1CCC(n2cc3c(nc2=O)Nc2cc(C4CCNCC4)ccc2O3)CC1` (stereo not drawn) [Compound 1236], for which the MIC is under 16 µg/mL.
For `N=C(N)NCCNC(=O)C1CCC(n2cc3c(nc2=O)Nc2cc(C4CCNCC4)ccc2O3)CC1` (stereo not drawn) [Compound 1237], the MIC is under 16 µg/mL.
Regarding `NCCNC(=O)C1CCC(n2cc3c(nc2=O)Nc2cc(C4CCNCC4)ccc2O3)CC1` (stereo not drawn) [Compound 1238], the minimal inhibitory concentration (MIC) is under 16 µg/mL.
Take `NCCCN(CCCN)C1CCC(n2cc3c(nc2=O)Nc2cc(C4CCNCC4)ccc2O3)CC1` (stereo not drawn) [Compound 1244]: the MIC was under 16 µg/mL.
Consider `NCCCNCC1CCC(n2cc3c(nc2=O)Nc2cc(C4CCNCC4)ccc2O3)CC1` (stereo not drawn) [Compound 1269], for which the MIC was under 16 µg/mL.
As for `NC1CCC(Cn2cc3c(nc2=O)Nc2cc(C4CCNCC4)ccc2O3)CC1` (stereo not drawn) [Compound 1368], the minimal inhibitory concentration (MIC) was over 16 µg/mL.
Turning to `NCC1CCC(n2cc3c(nc2=O)Nc2cc(C4CCNCC4)ccc2O3)CC1` (stereo not drawn) [Compound 1369], the minimum inhibitory concentration (MIC) is over 16 µg/mL.
For the molecule `NCCCN(CCCN)CC1CCC(n2cc3c(nc2=O)Nc2cc(C4CCNCC4)ccc2O3)CC1` (stereo not drawn) [Compound 1370], the MIC is under 16 µg/mL.
As to `CN(C)CCCOc1cccc2c1Nc1nc(=O)n(C3CCC(CN)CC3)cc1O2` (stereo not drawn) [Compound 1421], the minimum inhibitory concentration (MIC) was over 16 µg/mL.
With `CC(=O)NCCOc1cccc2c1Nc1nc(=O)n(C3CCC(CN)CC3)cc1O2` (stereo not drawn) [Compound 1426], the MIC was over 16 µg/mL.
On to `NCCOc1cccc2c1Nc1nc(=O)n([C@H]3CC[C@H](CN)CC3)cc1O2` [Compound 1427], for which the MIC was over 16 µg/mL.
As for `NC[C@H]1CC[C@H](n2cc3c(nc2=O)Nc2c(OCCCN4CCNCC4)cccc2O3)CC1` [Compound 1441], the minimum inhibitory concentration (MIC) is over 16 µg/mL.
Then `NCCCOc1cccc2c1Nc1nc(=O)n([C@H]3CC[C@H](CN)CC3)cc1O2` [Compound 1449], with over 16 µg/mL; and `NC[C@H]1CC[C@H](n2cc3c(nc2=O)Nc2c(OCCCCl)cccc2O3)CC1` [Compound 1450], with over 16 µg/mL; and `NC[C@H]1CC[C@H](n2cc3c(nc2=O)Nc2c(OCc4ccccc4)cccc2O3)CC1` [Compound 1467], with over 16 µg/mL.
As for `COc1cccc2c1Nc1nc(=O)n([C@H]3CC[C@H](CN)CC3)cc1O2` [Compound 4000c], the MIC was over 16 µg/mL.
For `NC[C@H]1CC[C@H](n2cc3c(nc2=O)Nc2c(OCCNC(N)=O)cccc2O3)CC1` [Compound 4001c], the MIC was over 16 µg/mL.
Consider `NC[C@H]1CC[C@H](n2cc3c(nc2=O)Nc2c(OCCNC(=O)NCc4ccccc4)cccc2O3)CC1` [Compound 4002c], for which the MIC is over 16 µg/mL.
On to `NC[C@H]1CC[C@H](n2cc3c(nc2=O)Nc2c(OCCCOCc4ccccc4)cccc2O3)CC1` [Compound 4003c], for which the MIC was over 16 µg/mL.
As to `N=C(N)NCCCN[C@H]1CC[C@H](n2cc3c(nc2=O)Nc2c(OCCN)cccc2O3)CC1` [Compound 4004c], the MIC is under 16 µg/mL.
Consider `NCCOc1cccc2c1Nc1nc(=O)n([C@H]3CC[C@H](N)CC3)cc1O2` [Compound 4005c], for which the MIC is over 16 µg/mL.
Take `N=C(N)NCCCNC(=O)[C@H]1CC[C@H](n2cc3c(nc2=O)Nc2c(OCCN)cccc2O3)CC1` [Compound 4006c]: the MIC is under 16 µg/mL.
Under `NCCCNC(=O)[C@H]1CC[C@H](n2cc3c(nc2=O)Nc2c(OCCN)cccc2O3)CC1` [Compound 4007c] stands over 16 µg/mL; under `N=C(N)NCCCNC(=O)[C@H]1CC[C@H](n2cc3c(nc2=O)Nc2c(CCCN)cccc2O3)CC1` [Compound 4008c], over 16 µg/mL.

The values above are taken from US9023843B2, “Antimicrobial compounds and methods of making and using the same” (Melinta Therapeutics, Inc., priority 2009, dated 2015).
